The record followed here is patent US20230011869A1 (Hoffmann-La Roche Inc., priority 2018, published 2023).

Structures are written as SMILES. Where a name gives a salt, the structure may show the parent alone. Read-outs that look alike come from different tables or passages of the source.

This experiment deals with Acinetobacter baumannii ATCC17978. Description: Antimicrobial susceptibility testing: 90% growth inhibitory concentration (IC90) determination, Iso-Sensitest broth. It counts as cell-based. In outline:
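A. baumannii ATCC17978 grown in Iso-Sensitest broth across 10 compound concentrations at 35±2 °C.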

The mark [1] stands for this setting: Acinetobacter baumannii, ATCC17978, 16 h, read-out: ATCC17978 IC90, 90% growth inhibitory concentration, Acinetobacter baumannii ATCC17978, Iso-Sensitest broth, OD 600 nm over 16 h.
Where [2] appears, read: 90% growth inhibitory concentration, Acinetobacter baumannii ATCC17978, Iso-Sensitest broth, OD 600 nm over 16 h, read-out: ATCC17978 IC90.

Regarding `CC(=O)NCCCC[C@H](N)C(=O)N1CCN(C(=O)c2ccc(Nc3nccn4c(-c5ccc(OC(F)F)cc5)cnc34)cc2C)CC1` [Example 338, N-[(5S)-5-amino-6-[4-[4-[[3-[4-(difluoromethoxy)phenyl]imi-dazo[1,2-a]pyrazin-8-yl]amino]-2-methylbenzoyl]piperazin-1-yl]-6-oxohexyl]acetamide; hydrochloride], the IC90 under setting [1] came out at 480 nM.
Still for that read-out and setting: the result for `Cc1cc(Nc2nccn3c(-c4ccc(OC(F)F)cc4)cnc23)ccc1C(=O)N1CCN(C(=O)C(C)(C)N)CC1` [Example 339, 2-amino-1-[4-[4-[[3-[4-(difluoromethoxy)phenyl]imi-dazo[1,2-a]pyrazin-8-yl]amino]-2-methylbenzoyl]piperazin-1-yl]-2-methylpropan-1-one; hydrochloride] reads 500 nM.
For `COc1ccc(-c2cnc3c(Nc4ccc(C(=O)N5CCC(CN)CC5)c(C(F)F)c4)nccn23)cc1F` [Example 340, [4-(aminomethyl)piperidin-1-yl]-[2-(difluoromethyl)-4-[[3-(3-fluoro-4-methoxyphenyl)imidazo[1,2-a]pyrazin-8-yl]amino]phenyl]methanone], under setting [2], the IC90 was 500 nM.
In the case of `Cc1cc(Nc2nccn3c(-c4ccc(OC(F)F)cc4)cnc23)ccc1C(=O)N1CCN(C(=O)[C@@H]2CNCCO2)CC1` [Example 341, [4-[[3-[4-(difluoromethoxy)phenyl]imi-dazo[1,2-a]pyrazin-8-yl]amino]-2-methylphenyl]-[4-[(2S)-morpholine-2-carbonyl]piperazin-1-yl]methanone; hydrochloride], under setting [1], the IC90 came to 520 nM.
Take `CCC[C@@H](N)C(=O)N1CCN(C(=O)c2ccc(Nc3nccn4c(-c5ccc(OC(F)F)cc5)cnc34)cc2C)CC1` [Example 342, (2R)-2-amino-1-[4-[4-[[3-[4-(difluoromethoxy)phenyl]imi-dazo[1,2-a]pyrazin-8-yl]amino]-2-methylbenzoyl]piperazin-1-yl]pentan-1-one; hydrochloride]: the IC90 under setting [1] was 550 nM.
On to `CCC[C@H](N)C(=O)N1CCN(C(=O)c2ccc(Nc3nccn4c(-c5ccc(OC(F)F)cc5)cnc34)cc2C)CC1` [Example 343, (2S)-2-amino-1-[4-[4-[[3-[4-(difluoromethoxy)phenyl]imi-dazo[1,2-a]pyrazin-8-yl]amino]-2-methylbenzoyl]piperazin-1-yl]pentan-1-one], for which the IC90 under setting [1] was 560 nM.
Consider `CCC(N)C(=O)N1CCN(C(=O)c2ccc(Nc3nccn4c(-c5ccc(OC(F)F)cc5)cnc34)cc2C)CC1` (centres unmarked) [Example 344, 2-amino-1-[4-[4-[[3-[4-(difluoromethoxy)phenyl]imi-dazo[1,2-a]pyrazin-8-yl]amino]-2-methylbenzoyl]piperazin-1-yl]butan-1-one; hydrochloride], for which the IC90 under setting [1] came to 560 nM.
On the same count and under the same terms, to `Cc1cc(Nc2nccn3c(-c4ccc(OC(F)F)cc4)cnc23)ccc1C(=O)N1CCN(C(=O)CNC(=O)CN)CC1` [Example 345, 2-amino-N-[2-[4-[4-[[3-[4-(difluoromethoxy)phenyl]imi-dazo[1,2-a]pyrazin-8-yl]amino]-2-methylbenzoyl]piperazin-1-yl]-2-oxoethyl]acetamide] belongs 570 nM; to `Cc1cc(Nc2nccn3c(-c4ccc(OC(F)F)cc4)cnc23)ccc1C(=O)N1CCN(C(=O)C(O)CO)CC1` (centres unmarked) [Example 346, 1-[4-[4-[[3-[4-(difluoromethoxy)phenyl]imi-dazo[1,2-a]pyrazin-8-yl]amino]-2-methylbenzoyl]piperazin-1-yl]-2,3-dihydroxypropan-1-one], 620 nM.
On the same count and under the same terms, the result for `Cc1cc(Nc2nccn3c(-c4ccc(OC(F)F)cc4)cnc23)ccc1C(=O)N1CCN(C(=O)CN2CCNCC2)CC1` [Example 347, 1-[4-[4-[[3-[4-(difluoromethoxy)phenyl]imi-dazo[1,2-a]pyrazin-8-yl]amino]-2-methylbenzoyl]piperazin-1-yl]-2-piperazin-1-ylethanone] reads 650 nM; that for `COc1ccc(-c2cnc3c(Nc4ccc(C(=O)N5CCN(C6CCNC6)CC5)c(C)c4)nccn23)cc1F` (centres unmarked) [Example 348, [4-[[3-(3-fluoro-4-methoxyphenyl)imidazo[1,2-a]pyrazin-8-yl]amino]-2-methylphenyl]-(4-pyrrolidin-3-ylpiperazin-1-yl)methanone; hydrochloride], 660 nM; that for `Cc1cc(Nc2nccn3c(-c4ccc(OC(F)F)cc4)cnc23)ccc1C(=O)N1CCC(C(=O)N2C[C@H](O)[C@@H](O)[C@H](O)[C@H]2CO)CC1` [Example 349, [4-[[3-[4-(difluoromethoxy)phenyl]imi-dazo[1,2-a]pyrazin-8-yl]amino]-2-methylphenyl]-[4-[(2R,3R,4R,5S)-3,4,5-trihydroxy-2-(hydroxymethyl)piperidine-1-carbonyl]piperidin-1-yl]methanone], 660 nM.
On the same count and under the same terms, the result for `Cc1cc(Nc2nccn3c(-c4ccc(OC(F)F)cc4)cnc23)ccc1C(=O)N1CCC(C(=O)N[C@@H]2[C@@H](O)[C@H](O)[C@@H](CO)O[C@@H]2O)CC1` [Example 350, 1-[4-[[3-[4-(difluoromethoxy)phenyl]imi-dazo[1,2-a]pyrazin-8-yl]amino]-2-methylbenzoyl]-N-[(2S,3R,4R,5S,6R)-2,4,5-trihydroxy-6-(hydroxymethyl)oxan-3-yl]piperidine-4-carboxamide] reads 710 nM; that for `CCNC(=O)CN1CCN(C(=O)c2ccc(Nc3nccn4c(-c5ccc(OC(F)F)cc5)cnc34)cc2C)CC1` [Example 352, 2-[4-[4-[[3-[4-(difluoromethoxy)phenyl]imi-dazo[1,2-a]pyrazin-8-yl]amino]-2-methylbenzoyl]piperazin-1-yl]-N-ethylacetamide], 220 nM.
Take `Cc1cc(Nc2nccn3c(-c4ccc(OC(F)F)cc4)cnc23)ccc1C(=O)N1CCC(Cn2ccnc2)CC1` [Example 353, [4-[[3-[4-(difluoromethoxy)phenyl]imi-dazo[1,2-a]pyrazin-8-yl]amino]-2-methylphenyl]-[4-(imidazol-1-ylmethyl)piperidin-1-yl]methanone]: under setting [1], the IC90 was determined as 240 nM.
Same read-out and setting: the result for `Cc1cc(Nc2nccn3c(-c4ccc(OC(F)F)cc4)cnc23)ccc1C(=O)N1CCC(Cn2cnnc2)CC1` [Example 354, [4-[[3-[4-(difluoromethoxy)phenyl]imi-dazo[1,2-a]pyrazin-8-yl]amino]-2-methylphenyl]-[4-(1,2,4-triazol-4-ylmethyl)piperidin-1-yl]methanone] reads 240 nM; that for `Cc1cc(Nc2nccn3c(-c4ccc(OC(F)F)cc4)cnc23)ccc1C(=O)N1CCN(CCN2CCCCC2)CC1` [Example 355, [4-[[3-[4-(difluoromethoxy)phenyl]imi-dazo[1,2-a]pyrazin-8-yl]amino]-2-methylphenyl]-[4-(2-piperidin-1-ylethyl)piperazin-1-yl]methanone], 260 nM.
On to `Cc1cc(Nc2nccn3c(-c4ccc(OC(F)F)cc4)cnc23)ccc1C(=O)N1CCC(c2nccn2C)CC1` [Example 356, [4-[[3-[4-(difluoromethoxy)phenyl]imi-dazo[1,2-a]pyrazin-8-yl]amino]-2-methylphenyl]-[4-(1-methylimidazol-2-yl)piperidin-1-yl]methanone], for which the IC90 under setting [1] came out at 300 nM.
As to `COc1ccc(-c2cnc3c(Nc4ccc(C(=O)N5CCC(c6nncn6C)CC5)c(C)c4)nccn23)cc1F` [Example 357, [4-[[3-(3-fluoro-4-methoxyphenyl)imidazo[1,2-a]pyrazin-8-yl]amino]-2-methylphenyl]-[4-(4-methyl-1,2,4-triazol-3-yl)piperidin-1-yl]methanone], the IC90 under setting [2] turned out to be 330 nM.
With `CNCCNC(=O)C1CCN(C(=O)c2ccc(Nc3nccn4c(-c5ccc(OC(F)F)cc5)cnc34)cc2C)CC1` [Example 358, 1-[4-[[3-[4-(difluoromethoxy)phenyl]imi-dazo[1,2-a]pyrazin-8-yl]amino]-2-methylbenzoyl]-N-[2-(methylamino)ethyl]piperidine-4-carboxamide; hydrochloride], the IC90 under setting [1] was 340 nM.
Same read-out and setting: the result for `Cc1cc(Nc2nccn3c(-c4ccc(OC(F)F)cc4)cnc23)ccc1C(=O)N1CCC2(CCNCC2)CC1` [Example 359, 3,9-diazaspiro[5.5]undecan-3-yl-[4-[[3-[4-(difluoromethoxy)phenyl]imi-dazo[1,2-a]pyrazin-8-yl]amino]-2-methylphenyl]methanone; hy-drochloride] reads 410 nM.
Same read-out and setting: the result for `Cc1cc(Nc2nccn3c(-c4ccc(OC(F)F)cc4)cnc23)ccc1C(=O)N1CCC2(CC1)CNC2` [Example 360, 2,7-diazaspiro[3.5]nonan-7-yl-[4-[[3-[4-(difluoromethoxy)phenyl]imi-dazo[1,2-a]pyrazin-8-yl]amino]-2-methylphenyl]methanone; hy-drochloride] reads 420 nM; that for `Cc1cc(Nc2nccn3c(-c4ccc(OC(F)F)cc4)cnc23)ccc1C(=O)N1CCC(N)CC1` [Example 361, (4-aminopiperidin-1-yl)-[4-[[3-[4-(difluoromethoxy)phenyl]imi-dazo[1,2-a]pyrazin-8-yl]amino]-2-methylphenyl]methanone; hy-drochloride], 450 nM.
For `Cc1cc(Nc2nccn3c(-c4ccc(OC(F)F)c(F)c4)cnc23)ccc1C(=O)N1CCC(N)CC1` [Example 362, (4-aminopiperidin-1-yl)-[4-[[3-[4-(difluoromethoxy)-3-fluorophenyl]imidazo[1,2-a]pyrazin-8-yl]amino]-2-methylphenyl]methanone; hy-drochloride], the IC90 under setting [2] is 490 nM.
As to `CCc1cc(Nc2nccn3c(-c4ccc(OC(F)F)cc4)cnc23)ccc1C(=O)N1CCC(CN)CC1` [Example 363, [4-(aminomethyl)piperidin-1-yl]-[4-[[3-[4-(difluoromethoxy)phenyl]imi-dazo[1,2-a]pyrazin-8-yl]amino]-2-ethylphenyl]methanone; hydro-chloride], the IC90 under setting [1] is 520 nM.
`Cc1cc(Nc2nccn3c(-c4ccc(OC(F)F)cc4)cnc23)ccc1C(=O)N1CCOC(CN)C1` (centres unmarked) [Example 364, [2-(aminomethyl)morpholin-4-yl]-[4-[[3-[4-(difluoromethoxy)phenyl]imi-dazo[1,2-a]pyrazin-8-yl]amino]-2-methylphenyl]methanone; hy-drochloride]: the IC90 under setting [1] came to 530 nM.
